Literature values, collected in US7524881B2, “Production of Δ 9 tetrahydrocannabinol” (Resolution Chemicals Limited, priority 2002, dated 2009).

Settings: for psychomimetic activity: qualitative background statement

SMILES	psychomimetic activity	psychomimetic activity relative to Δ8-THC (compared with Δ8-THC) [times]
C=C(C)[C@@H]1CCC(C)=C[C@H]1c1c(O)cc(CCCCC)cc1O [Cannabidiol (CBD), cannabidiol]	little activity	
CCCCCc1cc2c(c(O)c1C(=O)O)[C@@H]1C=C(C)CC[C@H]1C(C)(C)O2 [THCA-A, Δ9-THC carboxylic acid]	psychomimetically inactive	
CCCCCc1cc2c(c(O)c1C(=O)O)[C@@H]1C=C(C)CC[C@H]1C(C)(C)O2 [THCA-B, Δ9-THC carboxylic acid]	psychomimetically inactive	
CCCCCc1cc(O)c2c(c1)OC(C)(C)[C@@H]1CCC(C)=C[C@@H]21 [Δ9-THC, Delta 9 tetrahydrocannabinol]		20
